pKi: −log10 of the molar value.

One may read the pKi as the negative decadic logarithm of the Ki, by convention in mol/L. Read a low pKi as a large Ki.

The target of one experiment is T1, ScGrx7 (Saccharomyces cerevisiae, UniProt P38068).
T1 construct: gene GRX7; recombinant, N-terminal MRGS(H)6 tag kept, altered stop codon; E. coli XL1-Blue; non-covalent dimer; monothiol, one Cys per subunit
T1 sequence (P38068 37-203 limits assumed): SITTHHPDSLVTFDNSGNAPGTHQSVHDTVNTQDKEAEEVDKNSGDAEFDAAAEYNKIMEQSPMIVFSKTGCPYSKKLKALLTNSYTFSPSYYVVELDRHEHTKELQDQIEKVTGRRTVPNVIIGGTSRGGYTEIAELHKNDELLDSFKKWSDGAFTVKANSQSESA
The experiment in a line: HEDS assay coupled to glutathione reductase, NADPH […] nm; Km replot and Dixon plot. Format: biochemical.

Another experiment concerns the target T2, PfGrx (Plasmodium falciparum, UniProt Q9NLB2).
T2 construct: gene PF3D7_0306300; dithiol Grx with Cys29 and Cys32 (CPYC motif) and Cys88 (GGC motif)
T2 sequence (Q9NLB2 1-111): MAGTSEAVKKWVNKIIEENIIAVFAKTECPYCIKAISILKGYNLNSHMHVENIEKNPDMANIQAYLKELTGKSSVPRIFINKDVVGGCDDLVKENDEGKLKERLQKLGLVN
The experiment can be described thus: HEDS assay coupled to glutathione reductase, NADPH […] nm. To be noted: co-substrate GSH; sequential kinetics; pH 8.0, 25 °C. Format: biochemical.

On ScGrx7, `OCCS` [2-ME] gave a negative logarithm of the Ki (pKi) of 3.74.

For the compound `OCCSSCCO` [HEDS, bis(2-hydroxyethyl)disulfide], the “HEDS assay coupled to glutathione reductase, NADPH 340 nm” value at PfGrx is “HEDS assays with PfGrx yielded sequential kinetic patterns”.

Values taken from article PMC5707495, “Systematic re-evaluation of the bis(2-hydroxyethyl)disulfide (HEDS) assay reveals an alternative mechanism and activity of glutaredoxins” (Chemical Science, 2015).
